Laboratory results published in PubChem BioAssay (NCI).
Where “and” joins values, the source holds several entries; their conditions need not be identical. Equal entries are not always repeated.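 These data come from cells grown in 96-well plates and exposed to compound for 48 hours at five concentrations. Here, GI50 denotes the concentration required for 50% inhibition of growth. TGI denotes the concentration required for complete inhibition of growth.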 Where a SMILES comes first, the peptide text is derived from it. Bridges are numbered along the chain shown (N, C = ends). [ ]: non-standard residue; d: D form. ξ: configuration not given here. ξThr(3R) = C[C@@H](O)C(N)C(=O)O; S5 = C=CCCC[C@](C)(N)C(=O)O

Columns and labels:
Test in all cases: inhibition of tumour cell growth, NCI panel, 48 h
[1] = system: A549 NSCLC
[2] = system: LOX IMVI melanoma
[3] = system: HL-60(TB) leukemia
[4] = system: SR leukemia
[5] = system: OVCAR-4 ovarian
[6] = system: KM12 colon
[7] = system: TK-10 renal
[8] = system: EKVX NSCLC
[9] = system: MDA-MB-231 breast
[10] = system: PC-3 prostate

CN(NC1OC(CO)C(O)C(O)C1O)c1ccccc1 (configuration not stated)
TGI [1]: > 100 µM
TGI [2]: > 100 µM
TGI [3]: > 100 µM
TGI [4]: > 100 µM
TGI [5]: > 100 µM
TGI [6]: > 100 µM
TGI [7]: > 100 µM

CN(C)CCn1cnc2ncccc2c1=O
TGI [1]: > 100 µM
TGI [2]: > 100 µM
TGI [4]: > 100 µM
TGI [5]: > 100 µM
TGI [8]: > 100 µM
TGI [6]: > 100 µM
TGI [7]: > 100 µM

O=C(O)c1c(Cl)c(Cl)c(Cl)c(Cl)c1C(=O)Nc1ccc2cn[nH]c2c1
TGI [1]: > 100 µM
TGI [9]: > 100 µM
TGI [10]: > 100 µM
TGI [5]: > 100 µM
TGI [8]: > 100 µM
TGI [6]: > 100 µM
TGI [7]: > 100 µM

CCCCCCCCCCCCCCCCc1c(C(=O)OC)nc(NN)[nH]c1=O
TGI [1]: > 50 µM
TGI [2]: > 50 µM
TGI [3]: > 50 µM
TGI [5]: > 50 µM
TGI [8]: > 50 µM
TGI [6]: > 50 µM
TGI [7]: > 50 µM

CC(=O)Nc1ccc(/C=C2\N=C(c3ccccc3)OC2=O)cc1
TGI [1]: > 100 µM
TGI [2]: > 100 µM
TGI [3]: > 100 µM
TGI [5]: > 100 µM
TGI [8]: > 100 µM
TGI [6]: > 100 µM
TGI [7]: > 100 µM

O=C(N/C(=C\c1ccccc1Cl)c1nc2ccccc2[nH]1)c1ccccc1
TGI [1]: > 100 µM
TGI [3]: 71.4 µM
TGI [4]: 79.3 µM
TGI [5]: > 100 µM
TGI [8]: 88 µM
TGI [6]: > 100 µM
TGI [7]: > 100 µM

CCOC(=O)C(NO)C(Sc1ccccc1)c1ccc(OC)cc1 (configuration not stated)
TGI [1]: > 100 µM
TGI [2]: > 100 µM
TGI [4]: > 100 µM
TGI [8]: > 100 µM
TGI [6]: > 100 µM
TGI [7]: > 100 µM

CCOc1ccc(OCC)c([P+](c2ccccc2)(c2ccccc2)c2ccccc2)c1
TGI [1]: 11.6 µM
TGI [2]: 3.1 µM
TGI [3]: 0.529 µM
TGI [5]: 29 µM
TGI [8]: 16.5 µM
TGI [6]: 10.1 µM
TGI [7]: 12 µM

CCOC(=O)c1c(NC(=O)c2ccccc2)sc2c3c(ccc12)OCN(C)C3
GI50 [1]: 1.73 µM
TGI [1]: 3.56 µM
GI50 [2]: 1.62 µM
TGI [2]: 3.03 µM
GI50 [3]: 1.81 µM
TGI [3]: 3.88 µM
GI50 [9]: 1.85 µM
TGI [9]: 3.52 µM
GI50 [10]: 1.53 µM
TGI [10]: 3 µM
GI50 [5]: 1.75 µM
TGI [5]: 3.13 µM
GI50 [8]: 1.65 µM
TGI [8]: 3.08 µM
GI50 [6]: 1.75 µM
TGI [6]: 3.3 µM
GI50 [7]: 1.81 µM
TGI [7]: 3.54 µM

CC(=O)N[C@H](C(=O)N[C@@H](CCCNC(=N)N)C(=O)N[C@@H](CCCCN)C(=O)N[C@@H](CCCNC(=N)N)C(=O)NC(C(=O)N[C@@H](CC(C)C)C(=O)N[C@@H](CCCNC(=N)N)C(=O)N[C@@]1(C)CCC/C=C\CCC[C@@](C)(C(=O)N[C@@H](CCCNC(=N)N)C(=O)N[C@@H](CCC(=O)O)C(=O)N[C@@H](CC(C)C)C(=O)N[C@H](C(=O)N[C@@H](CCC(=O)O)C(N)=O)C(C)C)NC(=O)[C@H](CCC(N)=O)NC(=O)[C@H](CC(C)C)NC(=O)[C@H](CC(C)C)NC1=O)[C@@H](C)O)C(C)C (stereo partly drawn) (Ac-VRKR[ξThr(3R)]LR[S5]LLQ[S5]RELVE-NH2; staple (Z) 8-12)
GI50 [1]: 6.42 µM
TGI [1]: 14.3 µM
GI50 [2]: 8.64 µM
TGI [2]: 18.8 µM
GI50 [3]: 7.23 µM
TGI [3]: 19.2 µM
GI50 [9]: 8.24 µM
TGI [9]: 17.1 µM
GI50 [10]: 7.76 µM
TGI [10]: 15.3 µM
GI50 [5]: 9.5 µM
TGI [5]: 20 µM
GI50 [8]: 6.03 µM
TGI [8]: 14.2 µM
GI50 [6]: 1.99 µM
TGI [6]: 8.03 µM
GI50 [7]: 1.33 µM
TGI [7]: 4.38 µM

CN(C)C(=O)NC(=S)N(C)C
TGI [1]: > 100 µM
TGI [3]: > 100 µM
TGI [4]: > 100 µM
TGI [5]: > 100 µM
TGI [8]: > 100 µM
TGI [6]: > 100 µM
TGI [7]: > 100 µM

CC(=O)OC(C)(C)/C=C/C(=O)[C@](C)(O)[C@H]1[C@H](O)C[C@@]2(C)[C@@H]3CC=C4[C@@H](C=C(O)C(=O)C4(C)C)[C@]3(C)C(=O)C[C@]12C
TGI [1]: 6.51 µM and 1.23 µM and 2.65 µM
TGI [9]: 3.39 µM
GI50 [10]: 0.0408 µM
TGI [10]: 1.48 µM
TGI [6]: 5.61 µM and 3.46 µM and 4.83 µM
TGI [7]: 0.15 µM and 0.204 µM

CC1=C(C(=O)NCc2ccccc2)C(c2ccccc2C)C(C(=O)NCc2ccccc2)=C(C)N1
TGI [1]: > 100 µM
TGI [2]: 35.7 µM
TGI [3]: 59.3 µM
TGI [4]: 81.1 µM
TGI [5]: > 63.7 µM
TGI [8]: > 100 µM
TGI [6]: 58.8 µM
TGI [7]: 99.6 µM

C/C(=N\n1c(O)c(C#N)cc(C#N)c1=O)c1ccncc1
GI50 [1]: > 100 µM
TGI [1]: > 100 µM
GI50 [2]: > 100 µM
TGI [2]: > 100 µM
GI50 [4]: > 100 µM
TGI [4]: > 100 µM
GI50 [9]: > 100 µM
TGI [9]: > 100 µM
GI50 [10]: > 100 µM
TGI [10]: > 100 µM
GI50 [8]: > 100 µM
TGI [8]: > 100 µM
GI50 [6]: > 100 µM
TGI [6]: > 100 µM
GI50 [7]: > 100 µM
TGI [7]: > 100 µM

COc1ccc2nc(-c3ccccc3)cc(Nc3cccc(C(C)=O)c3)c2c1
GI50 [1]: 15.3 µM
TGI [1]: 55.6 µM
GI50 [9]: 9.65 µM
TGI [9]: 28.3 µM
GI50 [10]: 21.5 µM
TGI [10]: 50.6 µM
GI50 [5]: 7.05 µM
TGI [5]: 62.8 µM
GI50 [8]: 13.6 µM
TGI [8]: 34.3 µM
GI50 [7]: 12.6 µM
TGI [7]: 28.5 µM

O=C1c2cccnc2C(=O)c2c1c(C(=O)NCCn1ccnc1)c1ccccn21
GI50 [1]: 1.6 µM
TGI [1]: 6.82 µM
GI50 [2]: 1.59 µM
TGI [2]: 5.54 µM
GI50 [4]: 2.2 µM
TGI [4]: > 100 µM
GI50 [9]: 3.46 µM
TGI [9]: > 100 µM
GI50 [10]: 3.33 µM
TGI [10]: 15.2 µM
GI50 [5]: 1.62 µM
TGI [5]: 3.95 µM
GI50 [8]: 4.54 µM
TGI [8]: 18.6 µM
GI50 [6]: 2.96 µM
TGI [6]: 19 µM

N#Cc1ccccc1C#C/C=C\C#CC#C/C=C\C#Cc1ccccc1C#N
GI50 [1]: 11 µM
TGI [1]: > 100 µM
GI50 [2]: 17.3 µM
TGI [2]: 45 µM
GI50 [3]: 4.12 µM
TGI [3]: 22.5 µM
GI50 [9]: 8.76 µM
TGI [9]: 35.4 µM
GI50 [10]: 19.6 µM
TGI [10]: > 100 µM
GI50 [5]: 19.1 µM
TGI [5]: > 100 µM
GI50 [8]: 16.5 µM
TGI [8]: > 100 µM
GI50 [6]: 16.9 µM
TGI [6]: 38.4 µM
GI50 [7]: 23.9 µM
TGI [7]: 83 µM

CCN(CC)c1ccc2nc3c4ccccc4c(=O)cc-3n(-c3ccccc3)c2c1
GI50 [1]: 1.45 µM
TGI [1]: 3.96 µM
GI50 [2]: 1.62 µM
TGI [2]: 3.72 µM
GI50 [3]: 0.273 µM
TGI [3]: 0.821 µM
GI50 [9]: 2.22 µM
TGI [9]: 8.2 µM
GI50 [10]: 1.9 µM
TGI [10]: 7.58 µM
GI50 [5]: 1.2 µM
TGI [5]: 15.1 µM
GI50 [8]: 1.04 µM
TGI [8]: 5.85 µM
GI50 [6]: 1.69 µM
TGI [6]: 4.46 µM
GI50 [7]: 1.77 µM
TGI [7]: 5.63 µM
